ChEMBL document CHEMBL2396648, “Potent suppression of c-di-GMP synthesis via I-site allosteric inhibition of diguanylate cyclases with 2'-F-c-di-GMP” (Bioorg Med Chem, 2013)
Activity calls are given as the source filed them. The rule behind the calls is not given here.

Legend:
[1] = Competitive binding affinity to Pseudomonas aeruginosa Alg44 PilZ domain after 5 mins in presence of [32P]-c-di-GMP
[2] = target: T1, Cyclic di-GMP phosphodiesterase RocR (Pseudomonas aeruginosa (strain ATCC 15692 / PAO1 / 1C / PRS 101 / LMG12228), UniProt Q9HX69); assay: Competitive binding affinity to Pseudomonas aeruginosa PAO1 His6-tagged RocR expressed in Escherichia coli BL21 (DE3) after 5 mins in presence of [32P]-c-di-GMP
T1 sequence (Q9HX69 whole entry): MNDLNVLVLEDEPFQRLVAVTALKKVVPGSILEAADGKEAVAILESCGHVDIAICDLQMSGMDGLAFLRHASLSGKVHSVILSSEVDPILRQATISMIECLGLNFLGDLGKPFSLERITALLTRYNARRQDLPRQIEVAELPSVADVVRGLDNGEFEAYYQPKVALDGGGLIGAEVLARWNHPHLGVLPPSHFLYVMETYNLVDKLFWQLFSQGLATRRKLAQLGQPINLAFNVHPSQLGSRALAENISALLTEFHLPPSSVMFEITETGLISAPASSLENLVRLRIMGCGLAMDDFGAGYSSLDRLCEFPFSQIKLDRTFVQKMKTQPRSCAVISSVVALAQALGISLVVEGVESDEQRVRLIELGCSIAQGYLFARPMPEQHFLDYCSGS

[3] = Competitive binding affinity to Pseudomonas aeruginosa WspR after 5 mins in presence of [32P]-c-di-GMP
[4] = test system: Pseudomonas aeruginosa PA14; assay: Inhibition of Pseudomonas aeruginosa PA14 PvrR using [32P]-GTP as substrate at 100 uM after 120 mins by thin layer chromatographic analysis
[5] = target: T2, Cyclic di-GMP phosphodiesterase RocR (Pseudomonas aeruginosa (strain ATCC 15692 / PAO1 / 1C / PRS 101 / LMG12228)) (UniProt Q9HX69); assay: Inhibition of Pseudomonas aeruginosa PAO1 His6-tagged RocR expressed in Escherichia coli BL21 (DE3) using [32P]-GTP as substrate at 100 uM after 120 mins by thin layer chromatographic analysis
T2 sequence (whole entry): T1 sequence (Q9HX69 whole entry)

[6] = test system: Pseudomonas aeruginosa PA14; assay: Inhibition of Pseudomonas aeruginosa PA14 diguanylate cyclase PA1107 using [32P]-GTP as substrate at 100 uM after 120 mins by thin layer chromatographic analysis
[7] = Allosteric inhibition of Pseudomonas aeruginosa WspR using [32P]-GTP as substrate measured for 1 hr by thin layer chromatographic analysis
[8] = test system: Pseudomonas aeruginosa; assay: Inhibition of Pseudomonas aeruginosa WspR using [32P]-GTP as substrate at 100 uM after 120 mins by thin layer chromatographic analysis

| IC50 [1] | IC50 [2] | IC50 [3] | inhibition [4] | inhibition [5] | inhibition [6] | Ki [7] | inhibition [8] | SMILES |
| --- | --- | --- | --- | --- | --- | --- | --- | --- |
| 13.4 µM | 0.02 µM | > 100 µM | – | – | – | – | – | Nc1nc2c(ncn2[C@H]2C[C@@H]3OP(=O)(O)OC[C@H]4O[C@@H](n5cnc6c(=O)[nH]c(N)nc65)C[C@@H]4OP(=O)(O)OC[C@H]3O2)c(=O)[nH]1 |
| – | 0.02 µM | – | – | – | – | – | – | Nc1nc2c(ncn2[C@@H]2O[C@@H]3CO[P@](=O)(O)O[C@H]4[C@@H](O)[C@H](n5cnc6c(=O)[nH]c(N)nc65)O[C@@H]4CO[P@](=O)(O)O[C@H]3[C@H]2O)c(=O)[nH]1 |
| > 100 µM | 6.41 µM | > 100 µM | – | – | – | – | – | CO[C@@H]1[C@@H]2OP(=O)(O)OC[C@H]3O[C@@H](n4cnc5c(=O)[nH]c(N)nc54)[C@H](OC)[C@@H]3OP(=O)(O)OC[C@H]2O[C@H]1n1cnc2c(=O)[nH]c(N)nc21 |
| 3.12 µM | 0.72 µM | 11 µM | inactive | Active | Active | 12.6 µM | Active | Nc1nc2c(ncn2[C@@H]2O[C@@H]3COP(=O)(O)O[C@H]4[C@@H](F)[C@H](n5cnc6c(=O)[nH]c(N)nc65)O[C@@H]4COP(=O)(O)O[C@H]3[C@H]2F)c(=O)[nH]1 |
| 7.69 µM | – | 48.9 µM | inactive | Active | Active | 15.4 µM | Active | Nc1nc2c(ncn2[C@@H]2O[C@@H]3COP(=O)(O)O[C@H]4[C@@H](O)[C@H](n5cnc6c(=O)[nH]c(N)nc65)O[C@@H]4COP(=O)(O)O[C@H]3[C@H]2O)c(=O)[nH]1 |
